Converted amounts (≈) assume the structure as drawn.
Test system: KB
Test: Cytotoxicity against human KB cells
Assay type: functional
Conditions: read-out: ED50 (the source's name)

COc1cc([C@@H]2c3cc4c(c(OC)c3C[C@H]3COC(=O)[C@@H]32)OCO4)cc(OC)c1OC
EC50: 0.026 µg/mL (≈ 0.0607 µM)
